Laboratory results: PMC8583936, “Machine Learning Assisted Approach for Finding Novel High Activity Agonists of Human Ectopic Olfactory Receptors” (International Journal of Molecular Sciences, 2021)
pEC50: −log10 of the molar value. Several values for one entry are separate records, joined by “and”; a condition that tells them apart may be missing. Equal values may be shown once.

Molecular target: T1, OR2W1 (Homo sapiens, UniProt Q9Y3N9)
T1 sequence (Q9Y3N9 1-320): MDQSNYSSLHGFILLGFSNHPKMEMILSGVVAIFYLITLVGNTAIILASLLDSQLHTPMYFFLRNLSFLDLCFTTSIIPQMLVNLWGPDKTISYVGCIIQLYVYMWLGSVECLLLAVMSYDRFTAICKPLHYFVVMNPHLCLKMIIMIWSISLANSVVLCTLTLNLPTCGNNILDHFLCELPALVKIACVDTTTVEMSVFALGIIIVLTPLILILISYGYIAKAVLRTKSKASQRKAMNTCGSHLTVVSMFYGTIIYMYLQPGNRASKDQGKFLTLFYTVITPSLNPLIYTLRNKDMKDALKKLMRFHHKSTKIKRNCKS
Assay: Dual-Glo luciferase reporter gene assay, OR2W1 in Hana3A cells
Assay type: cell-based
Set-up: The open reading frames of ORs were amplified using Phusion polymerase; Rho-tag (first 20 amino acids of human rhodopsin) (N); expressed in transfected cells; host or cells: Hana3A cells (derived from HEK293T), pCI vector; co-transfected with human RTP1S, M3 receptor, CRE-Luc and SV40-RL
Conditions: for normilazed value = (L-400/R-400): three replicates
Protocol: Hana3A cells were maintained in minimal essential medium containing 10% FBS (vol/vol) with penicillin-streptomycin and amphotericin B (1/200 each vol/vol) at 37 °C and 5% CO2. Hana3A cells are derived from HEK293T [57] and are optimized for OR studies as shown in several studies, compared to earlier OR expression in Sf9 insect cells in Gat et al., and in Xenopus oocytes, COS-7, PC12h and CHO-K1 cells in Katada et al..
The Dual-Glo luciferase assay system (Promega, Madison, WI, USA) was used to evaluate the functionality of wild-type OR1A1 and OR2W1 in an in vitro system. The open reading frames of ORs were amplified using Phusion polymerase (Thermo Fisher Scientific, Waltham, MA, USA). Amplified fragments were cloned into pCI expression vector (Promega, Madison, WI, USA) containing the sequence encoding the first 20 amino acids of human rhodopsin (Rho-tag) at N-terminal. Hana3A cells have been cultured and plated the day before transfection with 6 mL at 1/10 of a 100% confluence 100 mm plate into 96-well plates coated with poly D-lysine. After overnight incubation, the required genes were transfected using, for each plate, 5 ng SV40-RL, 10 ng CRE-Luc, 5 ng human RTP1S [72], 2.5 ng M3 receptor [73] and 5 ng of receptor (OR1A1, OR2W1 or empty vector Rho-pCI) plasmid. After around 18 h of transfection, cells were stimulated during 3.5 h by 25 µL of odorant diluted in CD293 + 1% glutamine + 30 µM CuCl2. Odorants were obtained from Sigma Aldrich (St. Louis, MO, USA) and diluted at 1 M concentration in DMSO as stock solutions. […] The luminescence of Firefly (Luc) and Renilla (Rluc) luciferase, were then sequentially monitored by injecting the corresponding substrate following the supplier’s protocol. The activity in each well was normalized as (Luc-400)/(Rluc-400). The response of the receptor was also normalized to its basal activity as (NLX/NL0)-1 where NL0 is the normalized luminescence value at 0 µM of odorant and NLX the value at X µM. […] Raw results were first analyzed with Excel (Microsoft Corporation, Albuquerque, NM, USA) and dose response curves, max efficacy and EC50 have been determined with GraphPrism 6 software (GraphPad Software, La Jolla, CA, USA). Areas under the curves (AUC) were calculated in Excel by summing all the OR responses at different concentrations for each odorant.

[1] = OR2W1, log(agonist) vs. response (three parameters), 95% CI (profile likelihood), normalized (L-400/R-400)

SMILES: CCOc1ccc2ccccc2c1 [2-Ethoxynaphthalene]
- activation of OR2W1 in dose-responses (Figure 4B): activated OR2W1 in a dose-response manner
- potency relative to the strongest OR2W1 agonist of Bushdid et al. (OR2W1, comparison with ref 14): two times more potent
- Bottom [1]: 9.687 to 19.33
- Top [1]: 32.32 to 36.67
- normilazed value = (L-400/R-400) (OR2W1, log[molecule], M = -3.5): 30.4896 and 23.1676 and 21.7127
- normilazed value = (L-400/R-400) (OR2W1, log[molecule], M = -3.75): 33.5459 and 34.0167 and 35.7983
- normilazed value = (L-400/R-400) (OR2W1, log[molecule], M = -4): 29.5332 and 32.1424 and 36.1752
- normilazed value = (L-400/R-400) (OR2W1, log[molecule], M = -4.25): 38.6596 and 38.9119 and 38.3122
- normilazed value = (L-400/R-400) (OR2W1, log[molecule], M = -4.5): 28.5017 and 40.4493 and 38.4842
- normilazed value = (L-400/R-400) (OR2W1, log[molecule], M = -4.75): 39.1645 and 34.3635 and 36.5051
- normilazed value = (L-400/R-400) (OR2W1, log[molecule], M = -5): 30.1654 and 33.9031 and 33.7738
- normilazed value = (L-400/R-400) (OR2W1, log[molecule], M = -5.25): 31.8777 and 31.6329 and 33.9788
- normilazed value = (L-400/R-400) (OR2W1, log[molecule], M = -5.5): 30.0044 and 26.9494 and 25.4775
- normilazed value = (L-400/R-400) (OR2W1, log[molecule], M = -5.75): 22.1602 and 26.5902 and 25.5852
- normilazed value = (L-400/R-400) (OR2W1, log[molecule], M = -6): 23.2783 and 19.1056 and 20.6534
- pEC50 (OR2W1, three-parameter fit, 95% CI (profile likelihood)): 5.52 to 6.18
- LogEC50 (OR2W1, three-parameter fit, 95% CI (profile likelihood), log[molecule], M): -6.181 to -5.515
